Drawing on patent US6153591A, “Dipeptide caspase inhibitors and the use thereof” (Cytovia, Inc., priority 1999, dated 2000), this text covers Percent survival and IC50 for 20 compounds.

The test system of test [1] is lethality in mice caused by an anti-Fas antibody (clone Jo2). The experiment in a line: Protection against lethality in mice caused by anti-Fas antibody (clone Jo2). To be noted: Swiss Webster female mice, 6 μg Fas antibody. The test is classed as in vivo. Here is the method:
Cbz-Phg-Asp-fmk was examined as a protectant against lethality in mice caused by an anti-Fas antibody (clone Jo2) (Rodriguez, I. et al J. Exp. Med 184:2067-2072 (1996). Swiss Webster female mice weighing between 16-20 g were used. Food and water were given ad libium. Purified hamster anti-mouse Fas monoclonal antibody (clone Jo2, commercially available) 1 mg/ml in phosphate buffered saline was dosed i.v. at 6 μg/mouse (80 μl).
Cbz-Phg-Asp-fmk was dissolved in 0.05M Tris base adjusted to pH 8.5 with HCl. The concentration of Cbz-Phg-Asp-fmk was 1-10 mg/ml dosed as a single bolus i.v. in a volume of 1-5 μl/g body weight. Five groups of mice were injected with 6 μg of Fas antibody per mouse. 5 minutes following the antibody injection the mice received either Tris vehicle control or 1, 2.5, 10 or 50 mg/kg of Cbz-Phg-Asp-fmk. The survival of the mice was followed throughout 24 hours.

Test [2] concerns the target T1, caspase-3 (CPP32) (Homo sapiens, UniProt P42574).
T1 construct: made in house; host or cells: Sf9 insect cells, baculovirus vector
T1 sequence (P42574 29-175 limits assumed): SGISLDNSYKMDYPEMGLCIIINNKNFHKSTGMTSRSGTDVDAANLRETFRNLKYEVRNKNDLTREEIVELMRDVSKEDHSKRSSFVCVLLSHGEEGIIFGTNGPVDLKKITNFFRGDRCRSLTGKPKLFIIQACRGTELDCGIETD
T1 sequence (P42574 176-277 limits assumed): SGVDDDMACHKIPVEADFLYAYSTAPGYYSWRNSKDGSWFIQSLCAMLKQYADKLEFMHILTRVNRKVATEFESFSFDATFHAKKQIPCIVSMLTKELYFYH
The test can be described thus: Fluorometric enzyme assay of caspase-3 inhibition. As to conditions: recombinant caspase-3, substrate Asp-Glu-Val-Asp-AMC 5 μM, 30° C., 30 minutes. The test is classed as biochemical. Here is the method:
The activity of Cbz-Phg-Asp-fmk as an inhibitor of caspase-3 (CPP32) was measured in a fluorometric enzyme assay. Recombinant caspase-3 protein was prepared by expressing DNA clones encoding these enzymes in an insect host cell (sf9 cells) using baculovirus as the vector. See, Webb, N.R. et al., "Expression of proteins using recombinant Baculovirus," Techniques 2:173-188 (1990). Enzyme activity was measured using synthetic peptide substrates attached to a fluorogenic leaving group. Cleavage of the synthetic substrate by the enzyme results in a fluorescent signal which is read in a spectrofluorometer or in a fluorometric microtiter plate reader.
Caspase-3 activity was measured using the following buffer conditions: 100 mM HEPES pH 7.5, with 10% sucrose, 1% CHAPS. The peptide substrate for caspase-3 is Asp-Glu-Val-Asp-AMC (SEQ ID NO:2). […] The assay for enzyme activity was typically carried out at 30° C. for 30 minutes.

pIC50: −log10 of the molar value. Square brackets hold non-standard residues; d marks the D form. Peptide text beside a SMILES is read from it. * marks the point of attachment. ξ: configuration not given here. 1Nal = N[C@@H](Cc1cccc2ccccc12)C(=O)O; ξPhg = NC(C(=O)O)c1ccccc1; Cbz = O=C(OCc1ccccc1)*; CH2F = FC*

With `O=C(O)C[C@H](NC(=O)C(NC(=O)OCc1ccccc1)c1ccccc1)C(=O)CF` (stereo partly drawn) [Cbz-Phg-Asp-fmk] (Cbz-[ξPhg]-Asp-CH2F), the Percent survival in test [1] (1 mg/kg i.v., 1 h) amounted to 100%; in test [1] (1 mg/kg i.v., 3 h) it was 14.3%; in test [1] (1 mg/kg i.v., 24 h) it was 0%; in test [1] (2.5 mg/kg i.v., 1 h), 100%; in test [1] (2.5 mg/kg i.v., 3 h), 28.6%; in test [1] (2.5 mg/kg i.v., 24 h), 0%. The Percent survival in test [1] (10 mg/kg i.v., 1 h) turned out to be 100%; in test [1] (10 mg/kg i.v., 3 h) it was 42.9%; in test [1] (10 mg/kg i.v., 24 h) it was 14.3%; in test [1] (50 mg/kg i.v., 1 h) it was 100%; in test [1] (50 mg/kg i.v., 3 h), 100%; in test [1] (50 mg/kg i.v., 24 h), 42.9%.
The pIC50 is the negative decadic logarithm of the IC50, by convention in mol/L. Take `O=C(O)CC(NC(=O)C(NC(=O)OCc1ccccc1)c1ccccc1F)C(=O)CF` (stereo not shown) [Z-(2-F--Phg)--Asp--fmk, Z-(2-F-Phg)-Asp-fmk]: the pIC50 in test [2] is 6.44.
As for `O=C(O)CC(NC(=O)C(NC(=O)OCc1ccccc1)c1ccco1)C(=O)CF` (stereo not shown) [Z-(2-Fug)--Asp--fmk, Z-(2-Fug)-Asp-fmk], the pIC50 in test [2] was 6.36.
On to `O=C(O)C[C@H](NC(=O)C(NC(=O)OCc1ccccc1)c1cccs1)C(=O)CF` (stereo partly shown) [Z-(2-Thg)--Asp--fmk, Z-(2-Thg)-Asp-fmk], for which the pIC50 in test [2] is 6.55.
Take `CC(C)C(CNC(=O)OCc1ccccc1)C(=O)N[C@@H](CC(=O)O)C(=O)CF` (stereo partly drawn) [Z-(2-i-Pr-- --Ala)--Asp--fmk, Z-(2-i-Pr-β-Ala)-Asp-fmk]: the pIC50 in test [2] is 5.85.
For `O=C(O)CC(NC(=O)C(CF)NC(=O)OCc1ccccc1)C(=O)CF` (stereo not shown) [Z-(3-F-Ala)--Asp--fmk, Z-(3-F-Ala)-Asp-fmk], in test [2], the pIC50 was 6.05.
Take `CC(C)(F)[C@H](NC(=O)OCc1ccccc1)C(=O)N[C@@H](CC(=O)O)C(=O)CF` [Z-(3-F-Val)--Asp--fmk, Z-(3-F-Val)-Asp-fmk]: in test [2], the pIC50 was 6.36.
With `CN(C)CC(NC(=O)OCc1ccccc1)C(=O)NC(CC(=O)O)C(=O)CF` (stereo not shown) [Z-(3-Me2 N--Ala]--Asp--fmk, Z-(3-Me2 N-Ala)-Asp-fmk], the pIC50 in test [2] is 5.02.
On the same count and under the same terms, then `O=C(O)C[C@H](NC(=O)CC(NC(=O)OCc1ccccc1)c1ccccc1)C(=O)CF` (stereo partly drawn) [Z-(3-Ph-- --Ala)--Asp--fmk, Z-(3-Ph-β-Ala)-Asp-fmk], with 5.33.
`O=C(O)CC(NC(=O)C(NC(=O)OCc1ccccc1)c1ccsc1)C(=O)CF` (stereo not shown) [Z-(3-Thg)--Asp--fmk, Z-(3-Thg)-Asp-fmk]: in test [2], the pIC50 is 6.47.
For the compound `O=C(O)CC(NC(=O)C(NC(=O)OCc1ccccc1)c1ccc(C(F)(F)F)cc1)C(=O)CF` (stereo not shown) [Z-(4-CF3 --Phg)--Asp--fmk, Z-(4-CF3 -Phg)-Asp-fmk], in test [2], the pIC50 is 5.92.
Consider `O=C(O)CC(NC(=O)C(NC(=O)OCc1ccccc1)c1ccc(Cl)cc1)C(=O)CF` (stereo not shown) [Z-(4-Cl--Phg)--Asp--fmk, Z-(4-Cl-Phg)-Asp-fmk], for which the pIC50 in test [2] is 6.57.
Consider `O=C(O)CC(NC(=O)C(NC(=O)OCc1ccccc1)c1ccc(F)cc1)C(=O)CF` (stereo not shown) [Z-(4-F-Phg)--Asp--fmk, Z-(4-F-Phg)-Asp-fmk], for which the pIC50 in test [2] is 5.92.
Take `CC(C(NC(=O)OCc1ccccc1)C(=O)NC(CC(=O)O)C(=O)CF)C(F)(F)F` (stereo not shown) [Z--(F3 --Val)--Asp--fmk, Z-(F3 -Val)-Asp-fmk]: the pIC50 in test [2] was 6.22.
`O=C(O)C[C@H](NC(=O)[C@H](Cc1cccc2ccccc12)NC(=O)OCc1ccccc1)C(=O)CF` [Z-[(L)-1-Nal]--Asp--fmk, Z-[(L)-1-Nal]-Asp-fmk] (Cbz-[1Nal]-Asp-CH2F): the pIC50 in test [2] is 6.00.
On the same count and under the same terms, then `O=C(O)CC(NC(=O)C(NC(=O)OCc1ccccc1)c1cccs1)C(=O)CF` (stereo not shown) [Z-[(L)-2-Thg]--Asp--fmk, Z-[(L)-2-Thg]-Asp-fmk], with 6.29; and `N#CCC(NC(=O)OCc1ccccc1)C(=O)NC(CC(=O)O)C(=O)CF` (stereo not shown) [Z-[(L)-3-CN--Ala]--Asp--fmk, Z-[(L)-3-CN-Ala]-Asp-fmk], with 6.28.
Turning to `O=C(O)CC(NC(=O)C(CCl)NC(=O)OCc1ccccc1)C(=O)CF` (stereo not shown) [Z-[(L)-3-Cl--Ala]--Asp--fmk, Z-[(L)-3-Cl-Ala]-Asp-fmk], the pIC50 in test [2] was 6.00.
For `O=C(O)CC(NC(=O)C(NC(=O)OCc1ccccc1)c1ccsc1)C(=O)CF` (stereo not shown) [Z-[(L)-3-Thg]--Asp--fmk] [Z-[(L)-3-Thg]-Asp-fmk], the pIC50 in test [2] is 6.59.
The same measure, in the same setting: then “Z-[3-F-3-Me-Ala]-Asp-fmk [Z-(3-F-3-Me--Ala)--Asp--fmk]”, with 6.32.
